According to patent US11447466B2, “Substituted indole compounds useful as inhibitors of TLR7/8/9” (BRISTOL-MYERS SQUIBB COMPANY, priority 2017, dated 2022):

Tests used:
Format in all cases: cell-based
human TLR7 = biological target: T1, human TLR7 (Homo sapiens, UniProt Q9NYK1); assay: TLR7 inhibition reporter assay (HEK-Blue SEAP reporter, gardiquimod stimulation); settings: HEK-Blue cells overexpressing human TLR7, SEAP reporter, gardiquimod 7.5 μM, 22 hour incubation
T1 construct: host or cells: HEK-Blue cells
T1 sequence (Q9NYK1 27-1049): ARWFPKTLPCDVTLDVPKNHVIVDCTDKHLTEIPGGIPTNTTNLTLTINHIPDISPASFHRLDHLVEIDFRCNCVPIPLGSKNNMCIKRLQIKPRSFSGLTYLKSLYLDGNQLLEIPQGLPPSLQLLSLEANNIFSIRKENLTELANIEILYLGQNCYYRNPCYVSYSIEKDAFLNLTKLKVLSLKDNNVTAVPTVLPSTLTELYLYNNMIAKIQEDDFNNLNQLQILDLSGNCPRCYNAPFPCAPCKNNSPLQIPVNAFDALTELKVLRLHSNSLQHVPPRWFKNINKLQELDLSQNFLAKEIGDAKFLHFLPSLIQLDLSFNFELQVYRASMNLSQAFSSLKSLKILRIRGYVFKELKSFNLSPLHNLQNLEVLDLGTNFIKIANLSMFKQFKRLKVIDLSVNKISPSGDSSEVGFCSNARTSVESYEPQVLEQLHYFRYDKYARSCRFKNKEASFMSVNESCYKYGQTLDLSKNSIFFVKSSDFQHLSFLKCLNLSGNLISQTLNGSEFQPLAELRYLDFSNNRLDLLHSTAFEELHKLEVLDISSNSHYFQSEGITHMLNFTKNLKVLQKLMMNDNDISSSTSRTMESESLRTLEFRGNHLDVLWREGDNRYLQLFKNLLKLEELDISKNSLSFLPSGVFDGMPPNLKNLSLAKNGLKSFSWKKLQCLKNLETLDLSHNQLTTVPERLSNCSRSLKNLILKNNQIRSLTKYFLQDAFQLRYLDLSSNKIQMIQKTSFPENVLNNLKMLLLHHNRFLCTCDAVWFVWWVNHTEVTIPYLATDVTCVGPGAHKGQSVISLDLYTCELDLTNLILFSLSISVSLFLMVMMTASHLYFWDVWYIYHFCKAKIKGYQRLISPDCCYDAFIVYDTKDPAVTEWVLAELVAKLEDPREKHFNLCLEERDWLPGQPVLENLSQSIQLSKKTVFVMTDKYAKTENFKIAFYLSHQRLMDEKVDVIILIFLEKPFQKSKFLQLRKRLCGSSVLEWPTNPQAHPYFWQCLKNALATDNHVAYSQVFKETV
Summary of the method: (§1)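 Agonists used: gardiquimod 7.5 μM (TLR7), R848 15.9 μM (TLR8), ODN2006 5 nM (TLR9), added after 30 min room-temperature compound pre-treatment (0.05 nM–50 μM) of receptor-overexpressing HEK-Blue cells. SEAP reporter (NF-κB/AP-1 driven) read after 22 h at 37 °C; inhibition scaled between agonist+DMSO and reference-inhibitor wells.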

human TLR8 = biological target: T2, human TLR8 (Homo sapiens, UniProt Q9NR97); assay: TLR8 inhibition reporter assay (HEK-Blue SEAP reporter, R848 stimulation); settings: HEK-Blue cells overexpressing human TLR8, SEAP reporter, R848 15.9 μM, 22 hour incubation
T2 construct: host or cells: HEK-Blue cells
T2 sequence (Q9NR97 27-1041): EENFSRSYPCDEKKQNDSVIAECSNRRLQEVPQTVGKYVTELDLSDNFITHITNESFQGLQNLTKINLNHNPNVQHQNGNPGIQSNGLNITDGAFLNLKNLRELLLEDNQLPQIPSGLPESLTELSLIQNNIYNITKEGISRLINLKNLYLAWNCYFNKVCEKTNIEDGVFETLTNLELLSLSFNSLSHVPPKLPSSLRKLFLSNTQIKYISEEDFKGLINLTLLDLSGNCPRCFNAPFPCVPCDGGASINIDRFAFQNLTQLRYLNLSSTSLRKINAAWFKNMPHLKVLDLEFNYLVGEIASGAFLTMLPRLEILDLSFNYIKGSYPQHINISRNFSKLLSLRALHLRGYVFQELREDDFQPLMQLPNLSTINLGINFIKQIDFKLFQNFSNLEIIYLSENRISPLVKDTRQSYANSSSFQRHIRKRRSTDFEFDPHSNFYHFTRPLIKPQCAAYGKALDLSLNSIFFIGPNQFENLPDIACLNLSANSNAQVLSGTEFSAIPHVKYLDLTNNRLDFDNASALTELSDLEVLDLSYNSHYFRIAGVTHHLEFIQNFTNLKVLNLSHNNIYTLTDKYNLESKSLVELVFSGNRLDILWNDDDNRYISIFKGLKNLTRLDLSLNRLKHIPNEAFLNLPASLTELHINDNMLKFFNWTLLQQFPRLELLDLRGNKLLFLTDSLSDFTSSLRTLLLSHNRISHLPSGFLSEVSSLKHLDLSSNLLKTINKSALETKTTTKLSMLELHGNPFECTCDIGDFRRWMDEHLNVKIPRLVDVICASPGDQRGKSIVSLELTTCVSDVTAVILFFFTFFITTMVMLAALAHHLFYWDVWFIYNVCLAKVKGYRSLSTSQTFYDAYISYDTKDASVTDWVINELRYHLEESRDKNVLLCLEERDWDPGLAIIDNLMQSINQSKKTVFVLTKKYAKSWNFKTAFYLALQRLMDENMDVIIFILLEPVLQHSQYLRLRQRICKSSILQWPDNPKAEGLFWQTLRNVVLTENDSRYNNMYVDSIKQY
Summary of the method: as §1

human TLR9 = biological target: T3, human TLR9 (Homo sapiens, UniProt Q9NR96); assay: TLR9 inhibition reporter assay (HEK-Blue SEAP reporter, ODN2006 stimulation); settings: HEK-Blue cells overexpressing human TLR9, SEAP reporter, ODN2006 5 nM, 22 hour incubation
T3 construct: host or cells: HEK-Blue cells
T3 sequence (Q9NR96 26-1032): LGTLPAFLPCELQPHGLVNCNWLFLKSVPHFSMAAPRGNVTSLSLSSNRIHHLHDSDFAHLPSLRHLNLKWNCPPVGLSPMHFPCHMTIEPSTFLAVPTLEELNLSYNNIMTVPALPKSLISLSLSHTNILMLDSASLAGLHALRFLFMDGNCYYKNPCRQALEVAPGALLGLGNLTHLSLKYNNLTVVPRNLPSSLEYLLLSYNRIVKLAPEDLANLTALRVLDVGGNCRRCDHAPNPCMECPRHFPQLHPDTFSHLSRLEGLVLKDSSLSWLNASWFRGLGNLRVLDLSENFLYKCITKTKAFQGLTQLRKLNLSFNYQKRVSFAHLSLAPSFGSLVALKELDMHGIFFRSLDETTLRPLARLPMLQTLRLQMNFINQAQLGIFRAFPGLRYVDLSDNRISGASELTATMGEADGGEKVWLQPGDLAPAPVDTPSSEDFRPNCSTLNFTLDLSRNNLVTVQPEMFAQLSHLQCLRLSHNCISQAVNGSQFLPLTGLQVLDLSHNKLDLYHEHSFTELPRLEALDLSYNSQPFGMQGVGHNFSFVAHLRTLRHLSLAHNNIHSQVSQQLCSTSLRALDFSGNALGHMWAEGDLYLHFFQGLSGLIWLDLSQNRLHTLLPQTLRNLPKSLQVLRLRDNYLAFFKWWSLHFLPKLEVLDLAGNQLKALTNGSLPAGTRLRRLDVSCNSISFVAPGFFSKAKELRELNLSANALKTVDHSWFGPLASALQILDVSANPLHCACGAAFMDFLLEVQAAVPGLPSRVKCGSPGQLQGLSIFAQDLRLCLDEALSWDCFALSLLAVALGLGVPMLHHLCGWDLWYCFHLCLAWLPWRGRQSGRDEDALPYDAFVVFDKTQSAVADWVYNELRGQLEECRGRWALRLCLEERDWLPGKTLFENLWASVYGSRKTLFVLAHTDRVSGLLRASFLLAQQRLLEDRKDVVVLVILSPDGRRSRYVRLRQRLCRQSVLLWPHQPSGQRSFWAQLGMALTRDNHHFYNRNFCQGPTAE
Summary of the method: as §1

| SMILES | IC50 (human TLR7) [nM] | IC50 (human TLR8) [nM] | IC50 (human TLR9) [nM] |
| --- | --- | --- | --- |
| CC(C)CN1CCC(c2ccc3[nH]c(-c4cc(-c5ccccc5)c(=O)n(C)c4)c(C(C)C)c3c2)CC1 [Example 89, 5-(5-(1-isobutylpiperidin-4-yl)-3-isopropyl-1H-indol-2-yl)-1-methyl-3-phenylpyridin-2(1H)-one] | 16.9 | 4.5 | 1960 |
| CC(C)CCN1CCC(c2ccc3[nH]c(-c4cc(-c5ccccc5)c(=O)n(C)c4)c(C(C)C)c3c2)CC1 [Example 90, 5-(5-(1-isopentylpiperidin-4-yl)-3-isopropyl-1H-indol-2-yl)-1-methyl-3-phenylpyridin-2(1H)-one] | 21.7 | 7 | 1970 |
| CC(C)c1c(-c2cc(-c3cncnc3)c(=O)n(C)c2)[nH]c2ccc(C3CCN(CC4COC4)CC3)cc12 [Example 94, 5-(3-isopropyl-5-(1-(oxetan-3-ylmethyl)piperidin-4-yl)-1H-indol-2-yl)-1-methyl-3-(pyrimidin-5-yl)pyridin-2(1H)-one] | 8 | 1.3 | 2030 |
| COCCOCCOCCN1CCC(c2ccc3[nH]c(-c4cn(C)c(=O)c(Cl)c4C)c(C(C)C)c3c2)CC1 [Example 98, 3-chloro-5-(3-isopropyl-5-(1-(2-(2-(2-methoxyethoxy)ethoxy)ethyl)piperidin-4-yl)-1H-indol-2-yl)-1,4-dimethylpyridin-2(1H)-one] | 20.6 | 10.4 | 8750 |
| COCCCN1CCC(c2ccc3[nH]c(-c4cn(C)c(=O)c(Cl)c4C)c(C(C)C)c3c2)CC1 [Example 99, 3-chloro-5-(3-isopropyl-5-(1-(3-methoxypropyl)piperidin-4-yl)-1H-indol-2-yl)-1,4-dimethylpyridin-2(1H)-one] | 7.1 | 10.3 | 4980 |
| CC(C)c1c(-c2cc(-c3cncnc3)c(=O)n(C)c2)[nH]c2ccc(C3CCN(CC4CCOCC4)CC3)cc12 [Example 100, 5-(3-isopropyl-5-(1-((tetrahydro-2H-pyran-4-yl)methyl)piperidin-4-yl)-1H-indol-2-yl)-1-methyl-3-(pyrimidin-5-yl)pyridin-2(1H)-one] | 21.5 | 2.3 | 3060 |

Continued by falling IC50 (human TLR7), values first:

| IC50 (human TLR7) [nM] | IC50 (human TLR8) [nM] | IC50 (human TLR9) [nM] | SMILES |
| --- | --- | --- | --- |
| 7 | 7.8 | 6090 | COCCN1CCC(c2ccc3[nH]c(-c4cn(C)c(=O)c(Cl)c4C)c(C(C)C)c3c2)CC1 [Example 95, 3-chloro-5-(3-isopropyl-5-(1-(2-methoxyethyl)piperidin-4-yl)-1H-indol-2-yl)-1,4-dimethylpyridin-2(1H)-one] |
| 5.2 | 9.7 | 2050 | Cc1c(-c2[nH]c3ccc(C4CCN(C5CCCC5)CC4)cc3c2C(C)C)cn(C)c(=O)c1Cl [Example 97, 3-chloro-5-(5-(1-cyclopentylpiperidin-4-yl)-3-isopropyl-1H-indol-2-yl)-1,4-dimethylpyridin-2(1H)-one] |
| 5 | 4.9 | 5800 | Cc1c(-c2[nH]c3ccc(C4CCN(CC5CCOCC5)CC4)cc3c2C(C)C)cn(C)c(=O)c1Cl [Example 93, 3-chloro-5-(3-isopropyl-5-(1-((tetrahydro-2H-pyran-4-yl)methyl)piperidin-4-yl)-1H-indol-2-yl)-1,4-dimethylpyridin-2(1H)-one] |
| 3.2 | 2.8 | 8510 | Cc1c(-c2[nH]c3ccc(C4CCN(CC5COC5)CC4)cc3c2C(C)C)cn(C)c(=O)c1Cl [Example 92, 3-chloro-5-(3-isopropyl-5-(1-(oxetan-3-ylmethyl)piperidin-4-yl)-1H-indol-2-yl)-1,4-dimethylpyridin-2(1H)-one] |
| 3.1 | 5.7 | 2560 | Cc1cc(-c2[nH]c3ccc(C4CCN(C5CCCCC5)CC4)cc3c2C(C)C)cn(C)c1=O [Example 87, 5-(5-(1-cyclohexylpiperidin-4-yl)-3-isopropyl-1H-indol-2-yl)-1,3-dimethylpyridin-2(1H)-one] |
| 2.6 | 5 | 4390 | Cc1c(-c2[nH]c3ccc(C4CCN(CCC(C)C)CC4)cc3c2C(C)C)cn(C)c(=O)c1Cl [Example 91, 3-chloro-5-(5-(1-isopentylpiperidin-4-yl)-3-isopropyl-1H-indol-2-yl)-1,4-dimethylpyridin-2(1H)-one] |
| 2.1 | 4.6 | 2540 | Cc1cc(-c2[nH]c3ccc(C4CCN(CCC(C)C)CC4)cc3c2C(C)C)cn(C)c1=O [Example 86, 5-(5-(1-isopentylpiperidin-4-yl)-3-isopropyl-1H-indol-2-yl)-1,3-dimethylpyridin-2(1H)-one] |
| 2 | 14.3 | 2860 | Cc1c(-c2[nH]c3ccc(C4CCN(CC#N)CC4)cc3c2C(C)C)cn(C)c(=O)c1Cl [Example 96, 2-(4-(2-(5-chloro-1,4-dimethyl-6-oxo-1,6-dihydropyridin-3-yl)-3-isopropyl-1H-indol-5-yl)piperidin-1-yl)acetonitrile] |
